Assay results as given in patent publication US7150876B2, “Methods for stabilizing ingredients within cosmetics, personal care and household products” (Merck Patent GmbH, priority 2004, dated 2006).

Key:
[1] = Singlet oxygen quenching (RNO bleaching at 440 nm, methylene blue sensitizer, UV A); format: biochemical; details: for IC50% (μg/ml), singlet oxygen quenching ability: RNO bleaching at 440 nm, 20 min UV A; for Singlet oxygen scavenging behaviour: FIG. 3
Protocol: A solution of N,N-dimethyl-p-nitrosoaniline (RNO) and histidine and a known sensitizer (e.g. methylene blue) is exposed to UV A. Singlet oxygens generated under UV A induce a bleaching of RNO which can be measured spectrophotometrically at 440 nm. The efficiency of test products in terms of singlet oxygen scavenging is measured at 440 nm for various concentrations.
All measurements were performed at room temperature (24 C) with a Beckman Coulter DU-640 spectrophotometer at a scan speed of 120 nm/min with a spectral range from 300 to 700 nm.
150, Sigma-Aldrich • RNO (19 mg) dissolved in 50 ml of Buffer solution subsequent dilution by factor 25 in de-ionized water. • L-Histidine Solution (40 mM) • Mol. Wt. […] 320, Sigma-Aldrich • 5 mg are dissolved in distilled water (100 ml) subsequent dilution at 6.4 ml in 25 ml of de-ionized water. b) Antioxidant Solutions: • Ascorbic acid (0.5 mM) • Mol. Wt.
The stock solutions were added in an orderly manner with quantities according to the table below as to obtain a final total volume of 4.5 ml for each preparation. First, the RNO buffered solution was taken, followed by addition of L-Histidine and the sensitizer Methylene Blue. Then, the antioxidant solution was added and topped off to 4.5 ml total volume with buffer solution. This preparation was exposed to UV A radiation (˜35 W/m^2) for 20 min to generate singlet oxygens. The light absorption spectra were then recorded and the optical density measured at 440 nm (corresponding to RNO). The inverse of the light absorbances at 440 nm is then plotted as a function of the concentration in antioxidant.

[2] = Photostabilization of Guaiazulene in ethanolic solution under sun simulator; format: physicochemical; details: for Relative absorption of Guaiazulene at 600 nm (%): ethanolic solution, sun simulator
Protocol: (§1) In Solution: Solutions in ethanol are prepared at respective concentrations of photosensitive materials and photostabilizer (typically 1:1 to 1:5 in weight %). […] The amount of photosensitive materials remaining in solution is calculated from the ratio of their maximal absorption band (λmax), before and after irradiation.
(§2) Amount of energy: 10 mJoules/Cm^2=1 MED
Photostabilization Results of Guaiazulene in Ethanolic Solution

[3] = Photostabilization and color change of Vanillin in ethanolic solution under sun simulator; format: physicochemical; details: for Color change of Vanillin in solution (new light absorption band around 390 nm, yellow color): with and without stabilizer, FIG. 1; for Relative absorption of Vanillin at 281 nm (%): ethanolic solution
Protocol: as §1, §2
Photostabilization Results of Vanillin in Ethanolic Solution
Color Change of Vanillin in Solution Under Sun Simulator With and Without Diethylhexyl Syringylidene Malorate in Solution
Photostabilization Results of Vanillin in Ethanolic Solution with isoamyl-alpha-acetyl-3,5-dimethoxy-4-hydroxy cinnamate

[4] = Color change of Menthyl anthranilate in solution under sun simulator; format: physicochemical; details: menthyl anthranilate:stabilizer 1:5, FIG. 2
Protocol: (§3) In Solution: Solutions in ethanol are prepared at respective concentrations of photosensitive materials and photostabilizer (typically 1:1 to 1:5 in weight %). Solutions are exposed to a sun simulator (754 W/m^2, 2 MED/h,) for various durations and light absorption spectra recorded for each sample at given times. The amount of photosensitive materials remaining in solution is calculated from the ratio of their maximal absorption band (λmax), before and after irradiation.
Color Change of Menthyl Anthranilate Under Sun Simulator With and Without Diethylhexyl Syringylidene Malonate in Solution

[5] = Photostability of Guaiazulene in a shampoo formulation under sun simulator; format: physicochemical; details: stabilizer 0.1% in the shampoo
Protocol: In Formulation: Samples are prepared as ultrathin films between two quartz plates as to obtain a minimum of 90% light transmission over the entire spectrum range of non absorbing chromophores. For example, ingredients which absorb only in the UV will be tested in formulation to obtain a minimum of 90% light transmission over the visible range. Samples are then irradiated under sun simulator (754 W/m^2, typically 2 MED/h) for given times and light absorption spectra recorded at each time. The remaining percentage of photosensitive compounds is calculated from the light absorption maximum (λmax) of the corresponding peak in the absorption spectrum.
as §2
Formulation Used for the Study Described in Example-5
Procedure: Combine A and heat to 70–75° C., except for U-care JR-400. Disperse U-care JR-400 in A under agitation. Add ingredients of phase B one by one at 70° C. Add phase C at 40° C. Premix Phase D and add to batch at 40° C. At 35° C. add phase E. Adjust pH (˜6.5) and viscosity with phase F.

[6] = Photostabilization of natural Tocopherols in ethanolic solution under sun simulator; format: physicochemical; details: stabilizer 0.05%
Protocol: as §3, §2
Photostabilization Results of Natural Tocopherols in Ethanolic Solution

[7] = Photostability of β carotene in lotion under sun simulator; details: stabilizer 0.2%, β carotene 0.02%
[8] = Photostability of β carotene in lotion at room temperature, visible light, one month; details: room temperature storage

For `Cc1c(C)c2c(c(C)c1O)CCC(C)(C(=O)O)O2` (stereo not drawn) [Trolox C, S-hydroxy-tetramethylchroman carboxylic acid, reference compound], the “IC50% (μg/ml), singlet oxygen quenching ability” value (from here on “IC50% (μg/ml)”) [1] was 88 µg/mL.

In the case of `O=C1O[C@H]([C@@H](O)CO)C(O)=C1O` [Ascorbic acid, reference compound], the “Singlet oxygen scavenging behaviour” value [1] is reported as “pro-oxidant” and the “IC50% (μg/ml)” value [1] is reported as “Pro-oxidant”.

In the case of `COc1cc(C=C(C(C)=O)C(=O)OCCC(C)C)cc(OC)c1O` [Eusolex ASA ™, Isoamyl alpha acetyl-3,5 dimethoxy 4 hydroxy benzylidene malonate], the “Efficiency as an antioxidant (ranking)” value [1] is reported as “best efficiency as an antioxidant”, the “Singlet oxygen scavenging behaviour” value [1] is reported as “efficient singlet oxygen scavengers, better than Vitamin E” and the “IC50% (μg/ml)” value [1] is reported as 61 µg/mL.

For `Cc1ccc(C(C)C)cc2c(C)ccc1-2` [Guaiazulene], the “Relative absorption of Guaiazulene at 600 nm (%)” value ([2]; 0 MED) was 100%, the “Relative absorption of Guaiazulene at 600 nm (%)” value ([2]; 2 MED) was 83% and the “Relative absorption of Guaiazulene at 600 nm (%)” value ([2]; 5 MED) was 43%. For the same compound, the “Relative absorption of Guaiazulene at 600 nm (%)” value ([2]; 10 MED) was 6% and the “Guaiazulene lost when exposed to solar simulator” value ([2]; total energy of 100 mJ/cm^2) was ~90%.

In the case of `CCCCC(CC)COC(=O)C(=Cc1cc(OC)c(O)c(OC)c1)C(=O)OCC(CC)CCCC` (stereo not drawn) [Diethylhexyl syringylidene malonate, Di-2-ethylhexyl 3,5 dimethoxy 4 hydroxy benzylidene malonate], the “Color change of Vanillin in solution (new light absorption band around 390 nm, yellow color)” value [3] is reported as “does not appear”, the “Color change of Menthyl anthranilate (new light absorption band around 390 nm, yellow color)” value [4] is reported as “prevents any alteration/degradation of the fragrance” and the “Effect of stabilizer on photostability of Guaiazulene in shampoo” value [5] is reported as “clear improvement in the photostability of Guaiazulene”. For the same compound, the “Effect of stabilizer on photostability of Tocopherols in solution” value [6] was “clear improvement in the photostability of Tocopherols”, the “Singlet oxygen scavenging behaviour” value [1] was “efficient singlet oxygen scavengers, better than Vitamin E” and the “IC50% (μg/ml)” value [1] was 80 µg/mL. The “Effect of stabilizer on photostability of β carotene in lotion” value [7] was “clear improvement in the photostability of β carotene”.

With `CC1CCC(C(C)C)C(OC(=O)c2ccccc2N)C1` (stereo not drawn) [Menthyl anthranilate] the “Color change of Menthyl anthranilate (new light absorption band around 390 nm, yellow color)” value [4] was “a new light absorption band for menthyl antranillate appears around 390 nm”.

In the case of `CC1=C(/C=C/C(C)=C/C=C/C(C)=C/C=C/C=C(C)/C=C/C=C(C)/C=C/C2=C(C)CCCC2(C)C)C(C)(C)CCC1` [β-carotene], the “Stability of β-carotene in ambient light” value [8] is reported as “degrades in ambient light at room temperature storage”.

For `COc1cc(C=O)ccc1O` [Vanillin], the “Relative absorption of Vanillin at 281 nm (%)” value ([3]; 0 MED) was 100%, the “Relative absorption of Vanillin at 281 nm (%)” value ([3]; 2 MED) was 45% and the “Relative absorption of Vanillin at 281 nm (%)” value ([3]; 5 MED) was 40%. The “Relative absorption of Vanillin at 281 nm (%)” value ([3]; 10 MED) was 36% and the “Color change of Vanillin in solution (new light absorption band around 390 nm, yellow color)” value [3] was “a new light absorption band appears around 390 nm”.

For `CCOS(=O)(=O)[O-].CCOS(=O)(=O)[O-].CC[N+](C)(C)CCCNC(=O)C(=Cc1cc(OC)c(O)c(OC)c1)C(=O)NCCC[N+](C)(C)CC` [Eusolex HP ™, Bis-N-[3′-(N′,N′-Dimethylethylammonium)propyl]-3,5-dimethoxy-4-hydroxy benzylidene malonamide bis ethyl sulfate], the “Singlet oxygen scavenging behaviour” value [1] was “efficient singlet oxygen scavengers, better than Vitamin E” and the “IC50% (μg/ml)” value [1] was 104 µg/mL.
